Columns and labels:
Assay type in all cases: in vivo
Echinochloa crusgalli = experiment: Post-emergence test experiment, Echinochloa crusgalli; details: for Echinochloa crusgalli, activity level (growth inhibition rate): 3 weeks; for Activity level (growth inhibition rate), Echinochloa crusgalli: 1000 g a.i./ha, 3 weeks in greenhouse, fresh weight inhibition
Summary of the method: (§1)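 Weed and crop seeds were sown in soil-filled pots, covered with 0.5-2 cm soil and grown in a greenhouse. Plants were sprayed at the 2-3 leaf stage, 2 weeks after sowing. Compounds were in acetone with tween-80 plus methyl oleate emulsible concentrate synergist (1.5 liters per hectare). Fresh weight inhibition was scored after 3 weeks.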

Digitaria sanguinalis = experiment: Post-emergence test experiment, Digitaria sanguinalis; details: for Digitaria sanguinalis, activity level (growth inhibition rate): 3 weeks; for Activity level (growth inhibition rate), Digitaria sanguinalis: 1000 g a.i./ha, 3 weeks in greenhouse, fresh weight inhibition
Summary of the method: as §1

[1] = system: Semen Euphorbiae Lathyridis; experiment: Post-emergence test experiment, Semen Euphorbiae Lathyridis; details: 3 weeks
Description: (§2) The above described growth inhibition rate is fresh weight inhibition rate.
(§3) Post-emergence test experiment: Monocotyledonous and dicotyledonous weed seeds and main crop seeds (i. e. wheat, corn, rice, soybean, cotton, oilseed, millet and sorghum.) were put into a plastic pot loaded with soil. Then covered with 0.5-2 cm soil, the seeds were allowed to grow in good greenhouse environment. The test plants were treated at 2-3 leaf stage 2 weeks after sowing. The test compounds of the invention were dissolved with acetone respectively, then added with tween-80, and using 1.5 liters per hectare of an emulsible concentrate of methyl oleate as a synergist, and diluted by certain amount of water to certain concentration. The solution was sprayed to the plants with a sprayer. Then the plants were cultured for 3 weeks in the greenhouse, and the experiment result of weed controlling effect was listed in tables 4-5.

rice = experiment: Post-emergence test experiment, rice (crop selectivity); details: 3 weeks
Description: as §2, §3

[2] = system: Monocotyledonous and dicotyledonous weed seeds and main crop seeds; experiment: Post-emergence test experiment, other weeds and crops (Table 4, 1000 g a.i./ha); details: 3 weeks in greenhouse, fresh weight inhibition
Summary of the method: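 Weed and crop seeds (wheat, corn, rice, soybean, cotton, oilseed, millet, sorghum) sown in soil pots in a greenhouse and sprayed at 2-3 leaf stage, 2 weeks after sowing. Compound in acetone/tween-80 with methyl oleate concentrate (1.5 L/ha) as synergist. Effect recorded as fresh-weight growth inhibition rate.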

[3] = 200 g a.i./ha, weed resistant to ALS inhibitor and ACCe herbicides
[4] = 200 g a.i./ha, weed resistant to cyhalofop-butyl

Compound | Echinochloa crusgalli, activity level (growth inhibition rate) (Echinochloa crusgalli; [3]) | Activity level (growth inhibition rate), Echinochloa crusgalli (Echinochloa crusgalli) | Digitaria sanguinalis, activity level (growth inhibition rate) (Digitaria sanguinalis; [4]) | Activity level (growth inhibition rate), Digitaria sanguinalis (Digitaria sanguinalis) | Semen Euphorbiae Lathyridis, activity level (growth inhibition rate) [1, 4] | rice, activity level (growth inhibition rate) (rice; 200 g a.i./ha) | Activity level (growth inhibition rate), Abutilon theophrasti Medic. [2] | Activity level (growth inhibition rate), Galium aparine [2] | Activity level (growth inhibition rate), Monochoria Vaginalis [2] | Echinochloa crusgalli, activity level (growth inhibition rate) (Echinochloa crusgalli; 100 g a.i./ha, resistant weed) | Echinochloa crusgalli, activity level (growth inhibition rate) (Echinochloa crusgalli; 400 g a.i./ha, resistant weed) | Digitaria sanguinalis, activity level (growth inhibition rate) (Digitaria sanguinalis; 100 g a.i./ha, resistant weed) | Digitaria sanguinalis, activity level (growth inhibition rate) (Digitaria sanguinalis; 400 g a.i./ha, resistant weed) | Semen Euphorbiae Lathyridis, activity level (growth inhibition rate) ([1]; 100 g a.i./ha, resistant weed) | Semen Euphorbiae Lathyridis, activity level (growth inhibition rate) ([1]; 400 g a.i./ha, resistant weed) | rice, activity level (growth inhibition rate) (rice; 100 g a.i./ha) | rice, activity level (growth inhibition rate) (rice; 400 g a.i./ha)
CC(Oc1nc(F)c(Cl)c(N)c1Cl)C(=O)OCCN(C)C (stereo not shown) [Compound 2-283] | 5 (Level 5: the growth inhibition rate is greater than 85%) | 5 (Level 5: the growth inhibition rate is greater than 85%) | 5 (Level 5: the growth inhibition rate is greater than 85%) | 5 (Level 5: the growth inhibition rate is greater than 85%) | 5 (Level 5: the growth inhibition rate is greater than 85%) | 0 (Level 0: the growth inhibition rate is less than 5%) | 5 (Level 5: the growth inhibition rate is greater than 85%) | 5 (Level 5: the growth inhibition rate is greater than 85%) | 5 (Level 5: the growth inhibition rate is greater than 85%) | – | – | – | – | – | – | – | –
CCCC(C)COC(=O)[C@@H](C)Oc1nc(F)c(Cl)c(N)c1Cl (stereo partly shown) [Compound 2-103] | 5 (Level 5: the growth inhibition rate is greater than 85%) | 5 (Level 5: the growth inhibition rate is greater than 85%) | 5 (Level 5: the growth inhibition rate is greater than 85%) | 5 (Level 5: the growth inhibition rate is greater than 85%) | 5 (Level 5: the growth inhibition rate is greater than 85%) | 0 (Level 0: the growth inhibition rate is less than 5%) | 5 (Level 5: the growth inhibition rate is greater than 85%) | 5 (Level 5: the growth inhibition rate is greater than 85%) | 5 (Level 5: the growth inhibition rate is greater than 85%) | – | – | – | – | – | – | – | –
CC(Oc1nc(F)c(Cl)c(N)c1Cl)C(=O)OCC1CCCO1 (stereo not shown) [Compound 2-298] | 5 (Level 5: the growth inhibition rate is greater than 85%) | 5 (Level 5: the growth inhibition rate is greater than 85%) | 5 (Level 5: the growth inhibition rate is greater than 85%) | 5 (Level 5: the growth inhibition rate is greater than 85%) | 5 (Level 5: the growth inhibition rate is greater than 85%) | – | 5 (Level 5: the growth inhibition rate is greater than 85%) | 5 (Level 5: the growth inhibition rate is greater than 85%) | 5 (Level 5: the growth inhibition rate is greater than 85%) | 4 (Level 4: the growth inhibition rate is equal to or greater than 60% and less than 85%) | 5 (Level 5: the growth inhibition rate is greater than 85%) | 5 (Level 5: the growth inhibition rate is greater than 85%) | 5 (Level 5: the growth inhibition rate is greater than 85%) | 5 (Level 5: the growth inhibition rate is greater than 85%) | 5 (Level 5: the growth inhibition rate is greater than 85%) | 0 (Level 0: the growth inhibition rate is less than 5%) | 1 (Level 1: the growth inhibition rate is equal to or greater than 5% and less than 20%)
CCSC(=O)[C@@H](C)Oc1nc(F)c(Cl)c(N)c1Cl [Compound 2-72] | 5 (Level 5: the growth inhibition rate is greater than 85%) | 5 (Level 5: the growth inhibition rate is greater than 85%) | 5 (Level 5: the growth inhibition rate is greater than 85%) | 5 (Level 5: the growth inhibition rate is greater than 85%) | 5 (Level 5: the growth inhibition rate is greater than 85%) | 0 (Level 0: the growth inhibition rate is less than 5%) | 5 (Level 5: the growth inhibition rate is greater than 85%) | 5 (Level 5: the growth inhibition rate is greater than 85%) | 5 (Level 5: the growth inhibition rate is greater than 85%) | – | – | – | – | – | – | – | –
CCCCCCCCCCOC(=O)[C@@H](C)Oc1nc(F)c(Cl)c(N)c1Cl [Compound 2-195] | 4 (Level 4: the growth inhibition rate is equal to or greater than 60% and less than 85%) | 5 (Level 5: the growth inhibition rate is greater than 85%) | 5 (Level 5: the growth inhibition rate is greater than 85%) | 5 (Level 5: the growth inhibition rate is greater than 85%) | 5 (Level 5: the growth inhibition rate is greater than 85%) | 0 (Level 0: the growth inhibition rate is less than 5%) | 5 (Level 5: the growth inhibition rate is greater than 85%) | 5 (Level 5: the growth inhibition rate is greater than 85%) | 5 (Level 5: the growth inhibition rate is greater than 85%) | – | – | – | – | – | – | – | –
C[C@@H](Oc1nc(F)c(Cl)c(N)c1Cl)C(=O)OCCCC(F)(F)F [Compound 2-280] | 5 (Level 5: the growth inhibition rate is greater than 85%) | 5 (Level 5: the growth inhibition rate is greater than 85%) | 5 (Level 5: the growth inhibition rate is greater than 85%) | 5 (Level 5: the growth inhibition rate is greater than 85%) | 5 (Level 5: the growth inhibition rate is greater than 85%) | 0 (Level 0: the growth inhibition rate is less than 5%) | 5 (Level 5: the growth inhibition rate is greater than 85%) | 5 (Level 5: the growth inhibition rate is greater than 85%) | 5 (Level 5: the growth inhibition rate is greater than 85%) | – | – | – | – | – | – | – | –

Source: US12304890B2, “R-type pyridyloxycarboxylic acid, salt and ester derivative thereof, and preparation method therefor, and herbicidal composition and application thereof” (Qingdao Kingagroot Chemical Compound Co., Ltd., priority 2018, dated 2025)
